Measurements as given in US11261211B2, “19-NOR neuroactive steroids and methods of use thereof” (Sage Therapeutics, Inc., priority 2013, dated 2022).

Target: α1β2γ2 GABAA receptor (Homo sapiens (Human), UniProt P14867+P47870)
Test: Patch clamp electrophysiology of recombinant α1β2γ2 GABAA receptors in LTK cells
Assay type: cell-based
Settings: 10 μM compound, Qpatch, Ltk cells, GABA EC20 2 μM
Method: Cellular electrophysiology is used to measure the pharmacological properties of our GABAA receptor modulators in heterologous cell systems. Each compound is tested for its ability to affect GABA mediated currents at a submaximal agonist dose (GABA EC20=2 μM). LTK cells are stably transfected with the α1β2γ2 subunits of the GABA receptor and CHO cells are transiently transfected with the α4β3δ subunits via the Lipofecatamine method. Cells were passaged at a confluence of about 50-80% and then seeded onto 35 mm sterile culture dishes containing 2 ml culture complete medium without antibiotics or antimycotics. Confluent clusters of cells are electrically coupled (Pritchett et al., 1988). Because responses in distant cells are not adequately voltage clamped and because of uncertainties about the extent of coupling (Verdoorn et al., 1990), cells were cultivated at a density that enables the recording of single cells (without visible connections to other cells).
Whole cell currents were measured with HEKA EPC-10 amplifiers using PatchMaster software or by using the high throughput QPatch platform (Sophion). Bath solution for all experiments contained (in mM): NaCl 137 mM, KCl 4 mM, CaCl2 1.8 mM, MgCl2 1 mM, HEPES 10 mM, D-Glucose 10 mM, pH (NaOH) 7.4. In some cases 0.005% cremophor was also added. Intracellular (pipette) solution contained: KCl 130 mM, MgCl2 1 mM, Mg-ATP 5 mM, HEPES 10 mM, EGTA 5 mM, pH 7.2. During experiments, cells and solutions were maintained at room temperature (19° C.-30° C.). For manual patch clamp recordings, cell culture dishes were placed on the dish holder of the microscope and continuously perfused (1 ml/min) with bath solution. After formation of a Gigaohm seal between the patch electrodes and the cell (pipette resistance range: 2.5 MΩ-6.0 MΩ; seal resistance range: >1 GΩ) the cell membrane across the pipette tip was ruptured to assure electrical access to the cell interior (whole-cell patch-configuration). For experiments using the QPatch system, cells were transferred as suspension to the QPatch system in the bath solution and automated whole cell recordings were performed.
Cells were voltage clamped at a holding potential of −80 mV. For the analysis of test articles, GABA receptors were stimulated by 2 μM GABA after sequential pre-incubation of increasing concentrations of the test article. Pre-incubation duration was 30 s and the duration of the GABA stimulus was 2 s. Test articles were dissolved in DMSO to form stock solutions (10 mM). Test articles were diluted to 0.01, 0.1, 1, and 10 μM in bath solution. All concentrations of test articles were tested on each cell. The relative percentage potentiation was defined as the peak amplitude in response to GABA EC20 in the presence of the test article divided by the peak amplitude in response to GABA EC20 alone, multiplied by 100.

With `C[C@@]1(O)CC[C@H]2[C@H](CC[C@@H]3[C@@H]2CC[C@]2(C)[C@@H](C(=O)Cn4ncc5ccccc54)CC[C@@H]32)C1` [SA-5] the “α1β2γ2 GABA Qpatch in Ltk (Efficacy at 10 μm)” value was “C (“C” indicates an efficacy value of >500%)”.
With `C[C@@]1(O)CC[C@H]2[C@H](CC[C@@H]3[C@@H]2CC[C@]2(C)[C@@H](C(=O)Cn4ncc5c4CCCC5)CC[C@@H]32)C1` [SA-8] the “α1β2γ2 GABA Qpatch in Ltk (Efficacy at 10 μm)” value was “B (“B” indicates an efficacy value of >100-500%)”.

Same assay, conditions: LTK, 10 μM compound, Qpatch, Ltk cells, GABA EC20 2 μM; read-out: α1β2γ2 GABA Qpatch in Ltk (Efficacy at 10 μm)

First: CC[C@@]1(O)CC[C@H]2[C@@H](CC[C@@H]3[C@@H]2CC[C@]2(C)[C@@H](C(=O)Cn4nnc5ccccc54)CC[C@@H]32)C1 [SB-35]
Second: C[C@]12CC[C@H]3[C@@H](CC[C@@H]4C[C@@](O)(CF)CC[C@@H]43)[C@@H]1CC[C@@H]2C(=O)Cn1nnc2ccccc21 [SA-79]
The activity at 10 µM of the first is lower: 10 to 100% for the first, > 500% for the second.

Compared with `CCOC[C@@]1(O)CC[C@H]2[C@@H](CC[C@@H]3[C@@H]2CC[C@]2(C)[C@@H](C(=O)Cn4nc5ccccc5n4)CC[C@@H]32)C1` [SB-53], `CC[C@@]1(O)CC[C@H]2[C@@H](CC[C@@H]3[C@@H]2CC[C@]2(C)[C@@H](C(=O)Cn4nc5ccccc5n4)CC[C@@H]32)C1` [SB-36] is higher in activity at 10 µM: 10 to 100% for the first, 100 to 500% for the second.

First: COC[C@@]1(O)CC[C@H]2[C@H](CC[C@@H]3[C@@H]2CC[C@]2(C)[C@@H](C(=O)Cn4nnc5cnccc54)CC[C@@H]32)C1 [SA-123]
Second: C[C@]12CC[C@H]3[C@@H](CC[C@H]4C[C@@](O)(CF)CC[C@@H]43)[C@@H]1CC[C@@H]2C(=O)Cn1nnc2cnccc21 [SB-14]
The activity at 10 µM of the first is higher: 100 to 500% for the first, 10 to 100% for the second.

Compared with `C[C@@]1(O)CC[C@H]2[C@H](CC[C@@H]3[C@@H]2CC[C@]2(C)[C@@H](C(=O)Cn4ncc5nccnc54)CC[C@@H]32)C1` [SA-29], `C[C@@]1(O)CC[C@H]2[C@H](CC[C@@H]3[C@@H]2CC[C@]2(C)[C@@H](C(=O)Cn4ncc5cncnc54)CC[C@@H]32)C1` [SA-36] is higher in activity at 10 µM: 100 to 500% for the first, > 500% for the second.

First: C[C@@]1(O)CC[C@H]2[C@H](CC[C@@H]3[C@@H]2CC[C@]2(C)[C@@H](C(=O)Cn4nnc5ccccc54)CC[C@@H]32)C1 [SA-1]
Second: COC[C@@]1(O)CC[C@H]2[C@@H](CC[C@@H]3[C@@H]2CC[C@]2(C)[C@@H](C(=O)Cn4nnc5ccccc54)CC[C@@H]32)C1 [SB-49]
The activity at 10 µM of the first is higher: > 500% for the first, 100 to 500% for the second.

`COc1cccc2nn(CC(=O)[C@H]3CC[C@H]4[C@@H]5CC[C@@H]6C[C@](C)(O)CC[C@@H]6[C@H]5CC[C@]34C)nc12` [SA-75] and `COc1cccc2nnn(CC(=O)[C@H]3CC[C@H]4[C@@H]5CC[C@@H]6C[C@](C)(O)CC[C@@H]6[C@H]5CC[C@]34C)c12` [SA-73] fall in the same range of activity at 10 µM: 100 to 500% for the first, 100 to 500% for the second.

First: C[C@]12CC[C@H]3[C@@H](CC[C@@H]4C[C@@](O)(C(F)F)CC[C@@H]43)[C@@H]1CC[C@@H]2C(=O)Cn1nc2ccncc2n1 [SA-97]
Second: C[C@]12CC[C@H]3[C@@H](CC[C@@H]4C[C@@](O)(C(F)F)CC[C@@H]43)[C@@H]1CC[C@@H]2C(=O)Cn1nc2ccc(F)cc2n1 [SA-104]
The activity at 10 µM of the first is higher: > 500% for the first, 100 to 500% for the second.

First: CC[C@@]1(O)CC[C@H]2[C@@H](CC[C@@H]3[C@@H]2CC[C@]2(C)[C@@H](C(=O)Cn4cc5ncccc5n4)CC[C@@H]32)C1 [SB-29]
Second: CC[C@@]1(O)CC[C@H]2[C@H](CC[C@@H]3[C@@H]2CC[C@]2(C)[C@@H](C(=O)Cn4cc5ncccc5n4)CC[C@@H]32)C1 [SA-110]
The activity at 10 µM of the first is lower: 100 to 500% for the first, > 500% for the second.

First: C[C@]12CC[C@H]3[C@@H](CC[C@@H]4C[C@@](O)(CF)CC[C@@H]43)[C@@H]1CC[C@@H]2C(=O)Cn1ncc2ncccc21 [SA-84]
Second: COC[C@@]1(O)CC[C@H]2[C@@H](CC[C@@H]3[C@@H]2CC[C@]2(C)[C@@H](C(=O)Cn4ncc5ncccc54)CC[C@@H]32)C1 [SB-48]
The activity at 10 µM of the first is lower: 100 to 500% for the first, > 500% for the second.

First: C[C@]12CC[C@H]3[C@@H](CC[C@H]4C[C@@](O)(CF)CC[C@@H]43)[C@@H]1CC[C@@H]2C(=O)Cn1cc2ncccc2n1 [SB-16]
Second: C[C@]12CC[C@H]3[C@@H](CC[C@H]4C[C@@](O)(CF)CC[C@@H]43)[C@@H]1CC[C@@H]2C(=O)Cn1cc2ccncc2n1 [SB-18]
The activity at 10 µM of the first is lower: 100 to 500% for the first, > 500% for the second.

`C[C@@]1(O)CC[C@H]2[C@H](CC[C@@H]3[C@@H]2CC[C@]2(C)[C@@H](C(=O)Cn4ncc5ccc(F)cc54)CC[C@@H]32)C1` [SA-23] and `C[C@@]1(O)CC[C@H]2[C@H](CC[C@@H]3[C@@H]2CC[C@]2(C)[C@@H](C(=O)Cn4ncc5cc(C#N)ccc54)CC[C@@H]32)C1` [SA-38] cannot be ordered by activity at 10 µM: > 500% for the first, > 500% for the second.

`C[C@@]1(O)CC[C@H]2[C@H](CC[C@@H]3[C@@H]2CC[C@]2(C)[C@@H](C(=O)Cn4nnc5ncc(Cl)cc54)CC[C@@H]32)C1` [SA-56] and `C[C@@]1(O)CC[C@H]2[C@H](CC[C@@H]3[C@@H]2CC[C@]2(C)[C@@H](C(=O)Cn4nnc5ccc(Cl)cc54)CC[C@@H]32)C1` [SA-39] fall in the same range of activity at 10 µM: 100 to 500% for the first, 100 to 500% for the second.

First: COc1ccc2nn(CC(=O)[C@H]3CC[C@H]4[C@@H]5CC[C@H]6C[C@@](O)(CF)CC[C@@H]6[C@H]5CC[C@]34C)nc2c1 [SG-21]
Second: C[C@@]1(O)CC[C@H]2[C@H](CC[C@@H]3[C@@H]2CC[C@]2(C)[C@@H](C(=O)Cn4nc5ccc(OC(F)(F)F)cc5n4)CC[C@@H]32)C1 [SA-72]
The activity at 10 µM of the first is lower: 10 to 100% for the first, > 500% for the second.

`CC[C@@]1(O)CC[C@H]2[C@H](CC[C@@H]3[C@@H]2CC[C@]2(C)[C@@H](C(=O)Cn4nnc5ccncc54)CC[C@@H]32)C1` [SA-113] and `C[C@@]1(O)CC[C@H]2[C@H](CC[C@@H]3[C@@H]2CC[C@]2(C)[C@@H](C(=O)Cn4nnc5cnccc54)CC[C@@H]32)C1` [SA-12] fall in the same range of activity at 10 µM: 100 to 500% for the first, 100 to 500% for the second.

First: C[C@@]1(O)CC[C@H]2[C@H](CC[C@@H]3[C@@H]2CC[C@]2(C)[C@@H](C(=O)Cn4nnc5c(Cl)cccc54)CC[C@@H]32)C1 [SA-76]
Second: C[C@@]1(O)CC[C@H]2[C@H](CC[C@@H]3[C@@H]2CC[C@]2(C)[C@@H](C(=O)Cn4nnc5c(F)cccc54)CC[C@@H]32)C1 [SA-64]
The activity at 10 µM of the first is higher: > 500% for the first, 100 to 500% for the second.

`COC[C@@]1(O)CC[C@H]2[C@H](CC[C@@H]3[C@@H]2CC[C@]2(C)[C@@H](C(=O)Cn4nnc5ccccc54)CC[C@@H]32)C1` [SA-115] and `COC[C@@]1(O)CC[C@H]2[C@@H](CC[C@@H]3[C@@H]2CC[C@]2(C)[C@@H](C(=O)Cn4nc5ccncc5n4)CC[C@@H]32)C1` [SB-44] cannot be ordered by activity at 10 µM: > 500% for the first, > 500% for the second.

First: C[C@@]1(O)CC[C@H]2[C@H](CC[C@@H]3[C@@H]2CC[C@]2(C)[C@@H](C(=O)Cn4ncc5ncc(Cl)cc54)CC[C@@H]32)C1 [SA-27]
Second: C[C@@]1(O)CC[C@H]2[C@H](CC[C@@H]3[C@@H]2CC[C@]2(C)[C@@H](C(=O)Cn4nnc5cc(Cl)ccc54)CC[C@@H]32)C1 [SA-40]
The activity at 10 µM of the first is higher: > 500% for the first, 100 to 500% for the second.

Compared with `C[C@@]1(O)CC[C@H]2[C@H](CC[C@@H]3[C@@H]2CC[C@]2(C)[C@@H](C(=O)Cn4nc5ccccc5c4O)CC[C@@H]32)C1` [SA-54], `C[C@@]1(O)CC[C@H]2[C@@H](CC[C@@H]3[C@@H]2CC[C@]2(C)[C@@H](C(=O)Cn4nnc5cnccc54)CC[C@@H]32)C1` [SB-7] is lower in activity at 10 µM: > 500% for the first, 100 to 500% for the second.

For `C[C@@]1(O)CC[C@H]2[C@H](CC[C@@H]3[C@@H]2CC[C@]2(C)[C@@H](C(=O)Cn4nnc5ncccc54)CC[C@@H]32)C1` [SA-13], the activity at 10 µM was > 500%.

Same assay, conditions: LTK; potentiation of GABA EC20 (2 μM) current; read-out: GABAa alpha1 (α1β2γ2) Emax (%)

`C[C@@]1(O)CC[C@H]2[C@H](CC[C@@H]3[C@@H]2CC[C@]2(C)[C@@H](C(=O)Cn4nnc5ccccc54)CC[C@@H]32)C1` [SA-1] and `C[C@@]1(O)CC[C@H]2[C@H](CC[C@@H]3[C@@H]2CC[C@]2(C)[C@@H](C(=O)Cn4ncc5ccccc54)CC[C@@H]32)C1` [SA-5] fall in the same range of Emax: 500 to 1000% for the first, 500 to 1000% for the second.

Work on `C[C@@]1(O)CC[C@H]2[C@H](CC[C@@H]3[C@@H]2CC[C@]2(C)[C@@H](C(=O)Cn4ncc5c4CCCC5)CC[C@@H]32)C1` [SA-8] yielded an Emax of 0 to 500%.

Same assay, conditions: potentiation of GABA EC20 (2 μM) current; read-out: GABAa alpha1 (α1β2γ2)EC50

First: C[C@@]1(O)CC[C@H]2[C@H](CC[C@@H]3[C@@H]2CC[C@]2(C)[C@@H](C(=O)Cn4nnc5ccccc54)CC[C@@H]32)C1 [SA-1]
Second: C[C@@]1(O)CC[C@H]2[C@H](CC[C@@H]3[C@@H]2CC[C@]2(C)[C@@H](C(=O)Cn4ncc5ccccc54)CC[C@@H]32)C1 [SA-5]
The EC50 of the first is lower: 500 to 1000 nM for the first, 1000 to 2000 nM for the second. The first is the more potent here.

For `C[C@@]1(O)CC[C@H]2[C@H](CC[C@@H]3[C@@H]2CC[C@]2(C)[C@@H](C(=O)Cn4ncc5c4CCCC5)CC[C@@H]32)C1` [SA-8], the EC50 was 1000 to 2000 nM.
